{"source": "patent US20260265216A1", "about": "“NOVEL THIOREDOXIN REDUCTASE INHIBITORS” (GENEXPLAIN GMBH, priority 2021, published 2026)", "type_in_all_cases": "cell-based", "key": {"OVCAR4": {"tested_on": "OVCAR4", "assay": "Growth suppression, cancer cell line panel (resazurin)", "conditions": "OVCAR4, 0.4-25.6 μM, 48 hours", "description": "(§1) Breast, colon, ovarian, cervical, liver and lung carcinoma cell lines were grown in DMEM supplemented with 10% FBS, and antibiotics were cultured at 37° C. and 5% CO2. Osteosarcoma, melanoma, lymphoma, neuroblastoma and leukemia cell lines were cultured in RPMI 1640 with 10% FBS and antibiotics. An oxygen concentration of 0.3% was obtained by flushing a sealed box containing the cells with premixed gas composed of 95% nitrogen (N2) and 5% CO2 (AGA AB, Sweden). To obtain an oxygen concentration of 0.05%, the cells were flushed with the premixed gas continuously throughout the experiment.\nCells were grown in 96-well plates at a density of 3000 cells per well with or without doxycycline and treated with compounds. After 48 hours of incubation the proliferative cell reagent resazurin (Thermo Fisher Scientific) was added to the cells. The degree of resazurin reduction, which reflects cell viability, was measured by microplate reader by monitoring the absorbance at 570 nm and 600 nm, according to the manufacturer.\nThe panel of cancer cell lines, including carcinomas of breast (MDA-MB231, SKBR3, T47D, MCF7; BT549, BT20, MDA-MB468), colon, (SW480, RKO, HT29, HCT116) ovarian (OVCAR3, OVCAR4, OVCAR8), cervical (SW756, C33A), liver (HEPG2) and lung (H23), osteosarcoma (SJSA and U2OS), melanoma (ME180), lymphoma (Raji, HDLM2), neuroblastoma (SKNAS, IMR32) and leukemia (NB4, K562) were treated with increasing concentrations of 1d*HCl: 0.4; 0.8; 1.6; 3.2; 6.4; 12.8; 25.6 μM in 96-well plates. After 48 hours of incubation the proliferative cell reagent resazurin was added to the cells. The degree of resazurin reduction, which reflects cell viability, was measured by microplate reader by monitoring the absorbance at 570 nm and 600 nm, according to the manufacturer, and the IC50 and AUC (area under curve) were determined (Table 2). As could be seen in Table 2, 1d*HCl suppressed the growth of cancer cell lines of a different origin, including carcinomas, osteosarcomas, melanoma, lymphoma, leukemia and neuroblastoma. These findings open up a possibility of the application of the present invention in anti-cancer therapy in a broad range of tumor types."}, "MCF7 cells": {"tested_on": "MCF7 cells", "assay": "Apoptosis detection by FACS (Annexin V)", "conditions": "2 μM, 24 h", "description": "Cells were placed on 12-well plate at a density of 30000/cm^2 and treated with compounds. After 24 h incubation cells were harvested by trypsinization, fixed with 70% ethanol, treated with RNase A (0.25 mg/ml) and stained with Annexin V according to manufacturer's instructions (Thermo Fisher Scientific). Samples were analyzed on a Becton Dickinson FACScan. Data were analyzed by the CellQuest software, version 3.2.1.\nTo find out whether the growth suppression by 1d*HCl is due to triggering cell death by apoptosis, we performed the Annexin V-mediated staining of phosphatidylserine, exposed on surface of cells undergoing apoptotic cell death. We detected Annexin V-positive cells using FACS."}, "[1]": {"target": "T1, TrxR1 in HCT116 and MCF7 cells (Homo sapiens, UniProt Q16881)", "T1 construct": "endogenous in cells; host or cells: MCF7; HCT116", "T1 sequence (Q16881 1-499 isoform Q16881-5)": "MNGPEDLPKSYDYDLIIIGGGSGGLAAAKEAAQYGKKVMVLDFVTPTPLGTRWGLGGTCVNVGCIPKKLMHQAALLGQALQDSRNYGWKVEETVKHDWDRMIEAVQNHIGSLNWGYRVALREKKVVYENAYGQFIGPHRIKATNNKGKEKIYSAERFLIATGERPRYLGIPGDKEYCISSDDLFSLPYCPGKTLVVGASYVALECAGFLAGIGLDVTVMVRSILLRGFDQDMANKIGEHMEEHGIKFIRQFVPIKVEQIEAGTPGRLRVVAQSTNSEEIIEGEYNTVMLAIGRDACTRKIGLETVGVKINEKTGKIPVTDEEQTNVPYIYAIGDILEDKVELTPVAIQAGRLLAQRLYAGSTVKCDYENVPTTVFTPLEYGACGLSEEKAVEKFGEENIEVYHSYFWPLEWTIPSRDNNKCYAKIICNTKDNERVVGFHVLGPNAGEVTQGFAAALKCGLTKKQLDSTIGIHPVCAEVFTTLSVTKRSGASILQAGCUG", "assay": "Detection of TrxR dimers by Western blot", "conditions": "5 μM, detected as soon as 2 h", "description": "The extraction of total cell lysates and western blot were performed according to standard procedure. The antibodies used for immunoblotting were: p53 (sc-126, Santa Cruz Biotechnology), γH2AX (#07-164, Millipore), TrxR1 19A1 (AbFrontier). Anti-β-actin monoclonal antibody (Millipore) was used as loading control. The horseradish peroxidase-coupled secondary antibodies (Jackson ImmunoResearch) and SuperSignal™ West Dura Extended Duration Substrate detection system (Thermo Fischer Scientific), and images were visualized using ChemiDoc Imaging System (Bio-Rad).\nMCF7 or HCT116 cells were treated in culture with 5 or 10 μM of 1d*HCl (Example 4) in complete medium for 2 h or 6 h. For each case, duplicate drug treated samples were produced plus duplicate control treatment samples using equal volumes of the drug vehicle dimethyl sulfoxide. Detached cells from each biological replicate were washed, suspended in PBS containing protease inhibitors and cells lysed through freeze thaw cycles in liquid N2, according to the reference protocol. Soluble fraction was separated from precipitated protein by ultracentrifugation at 100000 g for 30 minutes at 4° C. and TrxR1 dimer formation was analysed using Western blot as described above. […]"}, "[2]": {"tested_on": "cancer cells grown in hypoxia", "assay": "Growth suppression under hypoxia versus normoxia", "conditions": "hypoxia vs normoxia", "description": "as §1\nHypoxic tumors are often the most aggressive and resistant to chemotherapy. Therefore, we tested how cells in hypoxia will respond to the treatment by 1d*HCl. It has been shown that 1d*HCl is even more efficient in hypoxia condition. […] Thus, the compounds of the present invention are of great interest for the treatment of hypoxic solid tumors."}}, "data": [{"smiles": "Cl.N#Cc1c(-c2cccnc2)[n+]([O-])c2cc(F)c(N3CCOCC3)cc2[n+]1[O-]", "note": "[Compound 1d*HCl, 6-Fluoro-7-(morpholin-4-yl)-3-(pyridin-3-yl)quinoxaline-2-carbonitrile-1,4-dioxide hydrochloride]", "values": [{"measurement": "AUC (area under curve)", "setting": "OVCAR4", "result": 3.7}, {"measurement": "Annexin V-positive cells (apoptosis)", "setting": "MCF7 cells", "result": "induced Annexin V-positive cells statistically significantly"}, {"measurement": "formation of TrxR1 covalent dimers (130 kDa band)", "setting": "[1]", "result": "induces the formation of TrxR1 covalent dimers"}, {"measurement": "IC50 in hypoxia lower than that in normoxia", "setting": "[2]", "result": 2.3, "unit": "fold"}]}]}
